Measurements published in patent US9745305B2, “Modulators of methyl modifying enzymes, compositions and uses thereof” (Constellation Pharmaceuticals, Inc., priority 2013, dated 2017).

These compounds were tested on H3K27me3 mark in Hela cells expressing wild type EZH2 (assay: H3K27me3 MSD Hela Assay). Details: Homo sapiens, HeLa, 96 h, read-out: H3K27me3_MSD_HeLa (EC50).
Format: cell-based
Description: H3K27me3 MSD Hela Assay. Trypsinized HeLa cells were counted and diluted in 10% DMEM (Life Technologies, Cat. #10569) to 5000 cells/75 μL. Seventy-five μL of cells were place in each well of a 96-well flat-bottomed plate and incubated at 37° C. for 4 hours. Twenty-five μL of test compound (at various concentrations) was added to the cells and incubation continued at 37° C. for 96 hours. Media was then removed and the cells rinsed once with ice cold PBS. Forty μL of ice-cold MSD Buffer AT (10 mM HEPES, pH 7.9, 5 mM MgCl2, 0.25M sucrose, Benzonase (1:10000), 1% Triton X-100 supplemented with fresh 1× Protease Inhibitor cocktail and 1 mM 4-(2-Aminoethyl)benzenesulfonyl fluoride hydrochloride (AEBSF)) was added to each well and the plates placed on ice for 30 minutes. Ten μL of 5M NaCl was then added to each well and incubation on ice continued for another 15 minutes. The material in each well was suspended pipetting up and down and then transferred to a new 96 well plate. The emptied wells were rinsed with 150 uL ice-cold 20 mM Tris pH 7.5, 1 mM EDTA, 1 mM EGTA, supplemented with fresh 1× Protease Inhibitor cocktail and 1 mM AEBSF (“NO salt NO detergent buffer) and transferred to the respective wells in the new plate. Three hundred μL of NO Salt NO detergent buffer was then added to each well of lysates and the plates frozen at −80° C.
On the same day, an appropriate number of MSD standard bind 96-well plates were coated with 30 μL/well of total H3 capture antibody (Millipore, Cat # MAB3422) at 1 μg/mL concentration in PBS. The antibody solution was evenly distributed first by tapping gently on the sides of the plates and then by shaking the plates for a few minutes at 1000 rpm. Antibody coated plates were stored at 4° C. overnight.
The next day the lysates are thawed to RT. The antibody coated MSD plates are washed 3× with TBS-T (Tris-buffered saline (Fisher Scientific, Cat #BP2471-1)+0.2% Tween-20). One-hundred fifty μL of 5% Blocker A in TBS-T is added to each well. The wells are covered and shaken on a shaker at RT for one hour. The Blocker A step is repeated a second time. After removing the blocker, 25 μL of cell lysate is transferred into each antibody coated well. The plates are shaken for 2 hours at RT, the lysate removed and the plates again washed with Blocker A in TBS-T. Twenty-five μL of appropriate freshly prepared antibody mix (including both primary and secondary antibodies) is added to each well and the plates shaken for 1 hour at RT.
Both H3 antibodies were obtained from Cell Signalling (Cat #s 4499 and 9733). The goat anti-rabbit antibody was obtained from Meso-Scale Discovery (Cat #R32AB-1).
The antibody mix was then removed and the wells washed with Blocker A. One hundred-fifty μL of freshly prepared 1×MSD Read Buffer (Meso-Scale Discovery; Cat #R927C-2) was then added to each well and the plates read on a MSD Sector 2400 Plate Reader.
Data was analyzed using Assay Assistant (Constellation Pharmaceuticals In-house product) and Activity Base (IDBS Ltd, Surrey, UK) template. Data files were imported to Assay Assistant and assay conditions were specified. A unique Analysis ID was created and the data files exported to Activity Base. An analysis template was created on Activity Base to measure dose-dependent inhibition of H3K27me3 mark and cell viability respectively. Readout of DMSO wells were used to normalize the data. Resulting curves were fitted using Activity base software Model 205 (IDBS Ltd, Surrey, UK). The data was checked for quality, validated and integrated in excel format using SARview (IDBS Ltd, Surrey, UK).
COc1cc(C)[nH]c(=O)c1CNC(=O)c1c(C)c(C(C)c2ccccc2)n2ncccc12 (racemic) [Compound 101, (±)-N-((4-methoxy-6-methyl-2-oxo-1,2-dihydropyridin-3-yl)methyl)-6-methyl-7-(1-phenylethyl)pyrrolo[1,2-b]pyridazine-5-carboxamide] gave an EC50 of under 0.4 µM. Work on COc1cc(C)[nH]c(=O)c1CNC(=O)c1c(C)c(C(C)C2CCOCC2)n2ncccc12 (racemic) [Compound 116, (±)-N-((4-methoxy-6-methyl-2-oxo-1,2-dihydropyridin-3-yl)methyl)-6-methyl-7-(1-(tetrahydro-2H-pyran-4-yl)ethyl)pyrrolo[1,2-b]pyridazine-5-carboxamide] yielded an EC50 of under 0.4 µM. COc1cc(C)[nH]c(=O)c1CNC(=O)c1c(C)c(C(C)c2ccccc2)n2ncccc12 (single isomer, unassigned) [Compound 105, (R or S)-N-((4-methoxy-6-methyl-2-oxo-1,2-dihydropyridin-3-yl)methyl)-6-methyl-7-(1-phenylethyl)pyrrolo[1,2-b]pyridazine-5-carboxamide] was tested, and the EC50 was under 0.4 µM.
